Assays:
[1] = tested on: seedlings of inbred lines 83IDI1 or 91DUQ1; test: Example 10: seedling survival after unsubmerged centrifugation for 3 or 180 min with colchicine; type: in vivo; conditions: 1250 ppm colchicine submerged 50 g 3 min, after one week
Experimental: Seedlings of one of two genetically diverse inbred lines (83IDI1 or 91DUQ1) were germinated in a greenhouse and removed from soil or growth media at the V1-V3 growth stage and rinsed with water to remove residual soil. All seedlings were then secured in PCSs comprising wraps and rods, like that shown in FIG. 9, and subjected to a submerged spin at 50 g in a liquid treatment solution comprising 1250 ppm colchicine for 3 min.
Following the first, submerged centrifugation, the plant treatment solution was decanted and the bundled seedlings were subjected to an unsubmerged centrifugation at 340 g for either 3 or 180 min.
Following the second centrifugation, the plants were removed from the centrifugation container and rinsed with water to remove any remaining colchicine solution, and then recovered and tended in a light, humidity, and temperature-controlled greenhouse for one week, then the number of plants surviving were counted to determine the survival rate within each treatment.

[2] = tested on: haploid corn seedlings (SAM); test: Example 2: single submerged centrifugation in colchicine, survival and doubling success; type: in vivo; conditions: for DE / Fert. Success / Initial Survival / Poll. Success: single submerged spin 50 g 10 min
From the text: Seeds of 5 different F1 hybrid-derived haploid commercial corn lines were randomly-selected and germinated in a greenhouse. The resulting seedlings were removed from soil or growth media at the V1-V2 growth stage and the soil or growth media rinsed from the plants with water. One sample of several random seedlings within each haploid line was placed in a centrifuge sample container without regard to how the shoot-root axis of the plants would be orientated with respect to the force of acceleration generated during the planned centrifugation. Next, a plant treatment solution comprising 1000 ppm colchicine was poured into the container such that the solution submerged each plants SAM, and then the sample centrifuged at 50 g for 10 min with the SAMs submerged in the plant treatment agent.
Following centrifugation, the plants were removed, rinsed with water to remove any remaining colchicine solution, and then recovered and tended in a light, humidity, and temperature-controlled greenhouse for several days before being transplanted to a nursery greenhouse.
The control sample received no centrifugation or colchicine exposure, but was otherwise handled identically as the treatment sample. During the subsequent growth of the plants, the initial survival, pollination success, fertilization success, and doubling efficiency (DE) were determined within each sample.

[3] = Ave: of five lines, 1000 ppm colchicine
[4] = centrifuged samples, 1000 ppm colchicine, submerged 50 g 10 min, vs untreated controls
[5] = line F1004, 1000 ppm colchicine
[6] = line F1045, 1000 ppm colchicine
[7] = line F1095, 1000 ppm colchicine
[8] = line F1118, 1000 ppm colchicine
[9] = line F1900, 1000 ppm colchicine

`COc1cc2c(c(OC)c1OC)-c1ccc(OC)c(=O)cc1[C@@H](NC(C)=O)CC2` [colchicine] was tested, and the Survival ([1]; pedigree 83IDI1, unsubmerged 340 g for 3 minutes) was 93%, the Survival ([1]; pedigree 83IDI1, unsubmerged 340 g for 180 minutes) was 94% and the Survival ([1]; pedigree 91DUQ1, unsubmerged 340 g for 3 minutes) was 95%. The Survival ([1]; pedigree 91DUQ1, unsubmerged 340 g for 180 minutes) was 96%, the DE [2, 3] was 30% and the “Fert. Success” value [2, 3] was 84%. The “Initial Survival” value [2, 3] was 77%, the “Poll. Success” value [2, 3] was 47% and the “drop in initial survival as compared to controls” value [2, 4] was 15%. The “improvement of overall average DE as compared to controls” value [2, 4] was 25%, the DE [2, 5] was 50% and the “Fert. Success” value [2, 5] was 100%. For the same compound, the “Initial Survival” value [2, 5] was 100%, the “Poll. Success” value [2, 5] was 50% and the DE [2, 6] was 25%. The “Fert. Success” value [2, 6] was 100%, the “Initial Survival” value [2, 6] was 58% and the “Poll. Success” value [2, 6] was 43%. The DE [2, 7] was 47%, the “Fert. Success” value [2, 7] was 78% and the “Initial Survival” value [2, 7] was 87%. For the same compound, the “Poll. Success” value [2, 7] was 69%, the DE [2, 8] was 10% and the “Fert. Success” value [2, 8] was 100%. The “Initial Survival” value [2, 8] was 40%, the “Poll. Success” value [2, 8] was 25% and the DE [2, 9] was 10%. The “Fert. Success” value [2, 9] was 40%, the “Initial Survival” value [2, 9] was 100% and the “Poll. Success” value [2, 9] was 50%. The “individuals that produced pollen and silks” value ([2]; minimum over all five inbred samples receiving the experimental treatment) was “at least 25%”.
